Data set [1] has as its system MKN-28. The data set is described as follows: Cytotoxicity against human MKN-28 cells assessed as reduction in cell viability at 12.5 to 25 uM incubated for 24 hrs by MTT assay. The class given is functional, cell-based. The following applies: dose 12.5-25 µM. For orientation: Formazan colour is commonly taken as a measure of viable cells.
Data set [2] in a line: Cytotoxicity against HDF cells assessed as reduction in cell viability at 12.5 to 25 uM incubated for 24 hrs by MTT assay. The following applies: human, dose 12.5-25 µM. Format: toxicity, cell-based.
Data set [3] relates to MKN-28. The data set is described as follows: Cytotoxicity against human MKN-28 cells assessed as reduction in cell viability at 12.5 to 50 uM incubated for 24 hrs by MTT assay. Format: functional, cell-based. The following applies: dose 12.5-50 µM.
A short description of data set [4]: Cytotoxicity against HDF cells assessed as reduction in cell viability at 12.5 to 50 uM incubated for 24 hrs by MTT assay. The class given is toxicity, cell-based. The following applies: human, dose 12.5-50 µM.
Data set [5] has as its system MKN-28. The data set is described as follows: Antiproliferative activity against human MKN-28 cells assessed as inhibition of cell growth incubated for 24 hrs by MTT assay. Format: functional, cell-based. The following applies: MKN-28, 24 h.
The nature of data set [6]: Cytotoxicity against HDF cells assessed as inhibition of cell growth incubated for 24 hrs by MTT assay. The following applies: human. Format: toxicity, cell-based.
The nature of data set [7]: Selectivity index, ratio of IC50 for cytotoxicity against HDF cells to IC50 for antiproliferative activity against human MKN-28 cells. The class given is toxicity, cell-based. The following applies: HDF cells versus MKN-28 cells, read-out: Ratio IC50.
The test system of another data set is Huh-7. Kind of data set: Antiproliferative activity against human Huh-7 cells assessed as inhibition of cell growth incubated for 24 hrs by Alamar blue assay. Format: functional, cell-based. The note with it: Huh-7, 24 h. (In general: The colour change of resazurin is a common sign of viable cells or microbes.)
A short description of data set [8]: Selectivity index, ratio of IC50 for cytotoxicity against HDF cells to IC50 for antiproliferative activity against human Huh-7 cells. The class given is toxicity, cell-based. The following applies: HDF cells versus Huh-7 cells, read-out: Ratio IC50.
In the next data set the test system is HepG2. The data set is described as follows: Antiproliferative activity against human HepG2 cells assessed as inhibition of cell growth incubated for 24 hrs by Alamar blue assay. The following applies: HepG2, 24 h. Format: functional, cell-based.
The nature of data set [9]: Selectivity index, ratio of IC50 for cytotoxicity against HDF cells to IC50 for antiproliferative activity against human HepG2 cells. Format: toxicity, cell-based. The following applies: HDF cells versus HepG2 cells, read-out: Ratio IC50.
Data set [10] concerns MKN-28. Kind of data set: Antiproliferative activity against human MKN-28 cells assessed as inhibition of cell growth incubated for 2 days by SRB assay. The note with it: MKN-28, 48 h. Format: functional, cell-based. For orientation: Sulforhodamine B stains cellular protein and so reports cell mass.

Structures are written as SMILES. Activity calls are given as the source filed them. The calls are words filed in the database; no cut-off is given here.

One may read the IC50 as the midpoint of a concentration-inhibition curve.

Consider `COc1cc(NCCCCNC(=O)/C=C/c2ccc(C)cc2)c2nc3cc(Cl)ccc3cc2c1`, for which, in the data set with MKN-28 [1], the outcome was inactive. In data set [2], the Activity entry is listed as “Non-Toxic”.

For the compound `COc1cc(NCCCCNC(=O)/C=C/c2ccc(F)cc2)c2nc3cc(Cl)ccc3cc2c1`, the result in the data set on MKN-28 [1] was inactive. In data set [2], the Activity result is “Non-Toxic”.

With `CCN(CC)CCCNc1c2ccc(Cl)cc2nc2c(NCCCCNC(=O)/C=C/c3ccc(OC)cc3)cc(OC)cc12`, in the data set on MKN-28 [3], the result was Active. Moreover, in [4], the Activity result was “Non-Toxic”. For the same compound, the IC50 in the data set on MKN-28 [5] is 15.5 µM; in the data set with Huh-7 it was 12.4 µM; with HepG2, 5.38 µM. The IC50 at 24 h in data set [6] was above 50 µM. The selectivity ratio is above 3.2 in [7], above 4 in data set [8] and above 9.3 in data set [9].

For `CCN(CC)CCCC(C)Nc1c2ccc(Cl)cc2nc2c(NCCCCNC(=O)/C=C/c3ccccc3)cc(OC)cc12` (stereo not drawn), the outcome in the data set with MKN-28 [3] was Active. In data set [4], the Activity result is listed as “Non-Toxic”. The concentration for half-maximal inhibition (IC50) was determined as 10 µM in the data set on MKN-28 [5], 7.26 µM in the data set on Huh-7 and 4.17 µM in the data set on HepG2. Also, in data set [6], the 50% inhibitory concentration (IC50) at 24 h was above 50 µM. Moreover, the selectivity ratio in data set [7] was above 5; in data set [8], above 6.9; in [9] it was above 12.

Regarding `CCN(CC)CCCNc1c2ccc(Cl)cc2nc2c(NCCCCNC(=O)/C=C/c3cccc(F)c3)cc(OC)cc12`, the outcome in the data set with MKN-28 [3] was Active. In addition, the Activity entry in [4] is “Non-Toxic”. Also, the results for the concentration for half-maximal inhibition (IC50) in the data set on MKN-28 [5], with Huh-7 and in the data set on HepG2 were 13 µM, 11.5 µM and 5.21 µM, respectively. Also, the IC50 at 24 h in data set [6] is above 50 µM. In addition, the selectivity ratio was above 3.8 in data set [7], above 4.3 in data set [8] and above 9.6 in [9].

Take `COc1cccc2c1C(=O)c1c(O)c3c(c(O)c1C2=O)C[C@@](O)(C(=O)CO)C[C@@H]3O[C@H]1C[C@H](N)[C@H](O)[C@H](C)O1` [DOXORUBICIN]: the half-inhibitory concentration (IC50) was determined as 0.34 µM in the data set on MKN-28 [10], 6.05 µM in the data set with Huh-7 and 0.425 µM with HepG2.

With `COc1cc(NCCCCNC(=O)/C=C/c2ccc(C(F)(F)F)cc2)c2nc3cc(Cl)ccc3cc2c1`, in the data set with MKN-28 [1], the outcome was inactive. Besides, in data set [2], the Activity result is on record as “Non-Toxic”.

Consider `COc1cc(NCCCCNC(=O)/C=C/c2ccccc2)c2nc3cc(Cl)ccc3cc2c1`, for which the outcome with MKN-28 [1] was inactive. Moreover, in [2], the Activity entry was “Non-Toxic”.

Regarding `CCN(CC)CCCC(C)Nc1c2ccc(Cl)cc2nc2c(NCCCCNC(=O)/C=C/c3cccc(F)c3)cc(OC)cc12` (stereo not drawn), the outcome in the data set on MKN-28 [3] was Active. In addition, the Activity result in data set [4] is given as “Non-Toxic”. The IC50 in the data set on MKN-28 [5] is 12.7 µM; in the data set with Huh-7 it was 12.9 µM; with HepG2, 5.06 µM. Also, the IC50 at 24 h in data set [6] is above 50 µM. The selectivity ratio in data set [7] is above 3.9; in data set [8], above 3.9; in data set [9], above 9.9.

Take `COc1cc(NCCCCNC(=O)/C=C/c2cccc(F)c2)c2nc3cc(Cl)ccc3cc2c1`: the outcome in the data set with MKN-28 [1] was inactive. In addition, the Activity result in [2] is “Non-Toxic”.

With `CCN(CC)CCCC(C)Nc1c2ccc(Cl)cc2nc2c(NCCCCNC(=O)/C=C/c3ccc(F)cc3)cc(OC)cc12` (stereo not drawn), in the data set on MKN-28 [3], the outcome was Active. In data set [4], the Activity result is “Non-Toxic”. Further, the half-inhibitory concentration (IC50) worked out at 12.5 µM in the data set on MKN-28 [5], 12.4 µM with Huh-7 and 7.64 µM in the data set with HepG2. In data set [6], the IC50 at 24 h was above 50 µM. The selectivity ratio in [7] is above 4; in [8], above 4; in [9], above 6.5.

Turning to `COc1cc(NCCCCNC(=O)/C=C/c2ccc(OC)c(OC)c2)c2nc3cc(Cl)ccc3cc2c1`, the result with MKN-28 [1] was inactive. The Activity result in [2] is reported as “Non-Toxic”.

For the compound `CCN(CC)CCCNc1c2ccc(Cl)cc2nc2c(NCCCCNC(=O)/C=C/c3ccc(F)cc3)cc(OC)cc12`, the result in the data set with MKN-28 [3] was Active. Further, in [4], the Activity entry is listed as “Non-Toxic”. The values for the half-maximal inhibitory concentration (IC50) in the data set with MKN-28 [5], with Huh-7 and with HepG2 were 12.2 µM, 11.2 µM and 6.32 µM, respectively. Further, in data set [6], the IC50 at 24 h was above 50 µM. Besides, the selectivity ratio in data set [7] is above 4.1; in data set [8], above 4.5; in data set [9], above 7.9.

On to `COc1cc(NCCCCNC(=O)/C=C/c2cccc(Br)c2)c2nc3cc(Cl)ccc3cc2c1`, for which the outcome with MKN-28 [1] was inactive. The Activity result in data set [2] was “Non-Toxic”.

For `CCN(CC)CCCC(C)Nc1c2ccc(Cl)cc2nc2c(NCCCCNC(=O)/C=C/c3ccc(OC)cc3)cc(OC)cc12` (stereo not drawn), the outcome in the data set on MKN-28 [3] was Active. For the same compound, the Activity entry in data set [4] is on record as “Non-Toxic”. Moreover, the figures for the half-inhibitory concentration (IC50) in the data set with MKN-28 [5], with Huh-7 and in the data set with HepG2 were 13.7 µM, 12.1 µM and 3.33 µM, respectively. Moreover, the IC50 at 24 h in [6] is above 50 µM. Moreover, the selectivity ratio was above 3.6 in [7], above 4.1 in data set [8] and above 15 in data set [9].

As to `CCN(CC)CCCC(C)Nc1c2ccc(Cl)cc2nc2ccc(OC)cc12` (stereo not drawn) [QUINACRINE], the half-inhibitory concentration (IC50) in the data set on MKN-28 [10] was determined as 2.46 µM; in the data set on Huh-7, 8.7 µM; in the data set on HepG2 it was 4.48 µM.

Turning to `CCN(CC)CCCNc1c2ccc(Cl)cc2nc2c(NCCCCNC(=O)/C=C/c3ccccc3)cc(OC)cc12`, the result in the data set on MKN-28 [3] was Active. The Activity entry in data set [4] was “Non-Toxic”. Further, the figures for the IC50 in the data set on MKN-28 [5], with Huh-7 and with HepG2 were 15.4 µM, 12.1 µM and 4.11 µM, respectively. The half-maximal inhibitory concentration (IC50) at 24 h in data set [6] is above 50 µM. Also, the selectivity ratio in [7] is above 3.2; in data set [8], above 4.1; in data set [9], above 12.2.

`COc1cc(NCCCCNC(=O)/C=C/c2ccc(C(C)C)cc2)c2nc3cc(Cl)ccc3cc2c1`: in the data set on MKN-28 [1], the outcome was inactive. The Activity entry in [2] was “Non-Toxic”.

As to `CNc1ccc(/C=C/C(=O)NCCCCNc2cc(OC)cc3cc4ccc(Cl)cc4nc23)cc1`, in the data set on MKN-28 [1], the result was inactive. Moreover, the Activity result in data set [2] is “Non-Toxic”.

Take `COc1cc(NCCCCNC(=O)/C=C/c2ccc([N+](=O)[O-])cc2)c2nc3cc(Cl)ccc3cc2c1`: in the data set on MKN-28 [1], the result was inactive. In addition, the Activity entry in [2] is “Non-Toxic”.

The values above are taken from ChEMBL document CHEMBL6127014, “Repurposing antiplasmodial leads for cancer: Exploring the antiproliferative effects of N-cinnamoyl-aminoacridines” (Bioorg Med Chem Lett, 2024).
